Test results as given in ChEMBL document CHEMBL4043215, “Synergistic antiproliferative effect of chemo-phototherapy: Synthesis and photodynamic activity evaluation of novel Chlorin e6-artesunate conjugates as antiproliferative agents” (Bioorg Med Chem Lett, 2017).
Calls of active or inactive are those of the source. The calls are words filed in the database; no cut-off is given here.

Tests used:
HepG2 [1] = assay: Phototoxicity against human HepG2 cells assessed as reduction in cell viability preincubated overnight followed by irradiation with LED light at 1.7 J/cm'2 for 10 mins measured post overnight incubation by MTT assay; assay type: functional, cell-based; conditions: HepG2, light or radiation study
[2] = Dark toxicity against human HepG2 cells assessed as reduction in cell viability incubated overnight by MTT assay; assay type: cell-based
HepG2 [3] = assay: Phototoxicity against human HepG2 cells assessed as reduction in cell viability up to 100 uM irradiated with LED light at 1.7 J/cm'2 measured after 12 hrs by MTT assay; assay type: functional, cell-based
HepG2 [4] = assay: Induction of intracellular ROS production in human HepG2 cells at 30 uM incubated for 10 hrs followed by DCF-DA addition for 20 mins in dark and irradiated with LED light at 1.7 J/cm'2 by fluorescence assay; assay type: functional, cell-based
[5] = Drug uptake in human HepG2 cells at 30 uM measured up to 10 hrs by fluorescence assay; assay type: ADME, cell-based; conditions: hepg2, 10 h
[6] = Induction of singlet oxygen production in Tris-Hcl buffer after irradiation with LED light at 1.7 J/cm'2 at 100 uM at pH 7.4 by ATTA-Eu3+ probe based fluorescence microscopy

Row | SMILES | IC50 (HepG2 [1]) [µM] | IC50 [2] [µM] | Activity (HepG2 [3]) | Activity (HepG2 [4]) | Drug uptake [5] | Activity [6]
1 | C[C@H]1[C@H](OC(=O)CCC(=O)O)O[C@@H]2O[C@@]3(C)CC[C@H]4[C@H](C)CC[C@@H]1[C@@]24OO3 [ARTESUNATE] | 7.7 | 6.5 | Active | Active | – | –
2 | C=Cc1c(C)c2cc3nc(c(CC(=O)O)c4[nH]c(cc5nc(cc1[nH]2)C(C)=C5CC)c(C)c4C(=O)O)[C@@H](CCC(=O)NCCNC(=O)CCC(=O)O[C@@H]1O[C@@H]2O[C@@]4(C)CC[C@H]5[C@H](C)CC[C@@H]([C@H]1C)[C@@]25OO4)[C@@H]3C | 1.5 | 29.1 | Active | Active | Active | Active
3 | C=Cc1c(C)c2cc3nc(c(CC(=O)O)c4[nH]c(cc5nc(cc1[nH]2)C(C)=C5CC)c(C)c4C(=O)NCCNC(=O)CCC(=O)O[C@@H]1O[C@@H]2O[C@@]4(C)CC[C@H]5[C@H](C)CC[C@@H]([C@H]1C)[C@@]25OO4)[C@@H](CCC(=O)O)[C@@H]3C | 1.8 | 36.6 | Active | Active | Active | Active
4 | C=Cc1c(C)c2cc3nc(c(CC(=O)NCCNC(=O)CCC(=O)O[C@@H]4O[C@@H]5O[C@@]6(C)CC[C@H]7[C@H](C)CC[C@@H]([C@H]4C)[C@@]57OO6)c4[nH]c(cc5nc(cc1[nH]2)C(C)=C5CC)c(C)c4C(=O)O)[C@@H](CCC(=O)O)[C@@H]3C | 2.4 | 57 | Active | Active | Active | Active
5 | C=Cc1c(C)c2cc3nc(c(CC(=O)NCCNC(=O)CCC(=O)O[C@@H]4O[C@@H]5O[C@@]6(C)CC[C@H]7[C@H](C)CC[C@@H]([C@H]4C)[C@@]57OO6)c4[nH]c(cc5nc(cc1[nH]2)C(C)=C5CC)c(C)c4C(=O)NCCNC(=O)CCC(=O)O[C@@H]1O[C@@H]2O[C@@]4(C)CC[C@H]5[C@H](C)CC[C@@H]([C@H]1C)[C@@]25OO4)[C@@H](CCC(=O)NCCNC(=O)CCC(=O)O[C@@H]1O[C@@H]2O[C@@]4(C)CC[C@H]5[C@H](C)CC[C@@H]([C@H]1C)[C@@]25OO4)[C@@H]3C | 0.8 | 12.9 | Active | Active | Active | inactive
6 | C=CC1=C(C)/C2=C/C3=NC(=C(/CC(=O)NCCNC(=O)OC(C)(C)C)c4[nH]c(c(C)c4C(=O)O)/C=C4\N=C(CC1N2)C(C)=C4CC)/[C@@H](CCC(=O)O)[C@@H]3C (stereo not given in full) | – | – | – | Active | Active | –
